Consider 18 molecules from PubChem BioAssay AID220 (DTP/NCI, 2004).

Values joined by “and” are separate entries in the source; they are usually repeats but may differ in a detail not shown here. Equal values may be shown once. Results filed as inconclusive are left out.

The subject of the experiment is CD8F1 mice, subcutaneous mammary adenocarcinoma, T/C%. In words: NCI In Vivo Anticancer Drug Screen. Data for tumor model Mammary Adenocarcinoma CD8F1 (subcutaneous) in CD8F1. Particulars: higher = larger tumour. In a few lines:
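Compound-treated versus vehicle-treated mice with transplantable tumors; survival or tumor size compared as T/C.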

[1] abbreviates: endpoint: median tumor weight (est.), dose: 12.5 mg/kg/injection, schedule: Q07DX005 (ip), vehicle: saline.
The mark [2] stands for this setting: endpoint: median tumor weight change, dose: 125.0 mg/kg/injection, schedule: Q01DX001 (ip), vehicle: saline.
The mark [3] stands for this setting: endpoint: median tumor weight change, dose: 250.0 mg/kg/injection, schedule: Q01DX001 (ip), vehicle: saline.
[4] abbreviates: endpoint: median tumor weight change, dose: 500.0 mg/kg/injection, schedule: Q01DX001 (ip), vehicle: saline.
Where [5] appears, read: endpoint: median tumor weight change, dose: 1000.0 mg/kg/injection, schedule: Q01DX001 (ip), vehicle: saline.
The mark [6] stands for this setting: endpoint: median tumor weight (est.), dose: 12.5 mg/kg/injection, schedule: Q07DX005 (ip), vehicle: saline with Tween-80.
The mark [7] stands for this setting: endpoint: median tumor weight (est.), dose: 25.0 mg/kg/injection, schedule: Q07DX005 (ip), vehicle: saline with Tween-80.
The mark [8] stands for this setting: endpoint: median tumor weight (est.), dose: 50.0 mg/kg/injection, schedule: Q07DX005 (ip), vehicle: saline with Tween-80.
The mark [9] stands for this setting: endpoint: median tumor weight (est.), dose: 6.25 mg/kg/injection, schedule: Q07DX005 (ip), vehicle: saline with Tween-80.
The mark [10] stands for this setting: endpoint: median tumor weight (est.), dose: 200.0 mg/kg/injection, schedule: Q07DX005 (ip), vehicle: saline with Tween-80.
Where [11] appears, read: endpoint: median tumor weight change, dose: 125.0 mg/kg/injection, schedule: Q01DX001 (ip), vehicle: Klucel (hydroxypropylcellulose) (HPC).

As to `COc1cccc2c1C(=O)c1c(O)c3c(c(O)c1C2=O)C[C@H](O)C[C@@H]3OC1CC(N)C(O)C(C)O1` (some centres not stated), the T/C by setting is: (endpoint: median tumor weight (est.), dose: 0.78 mg/kg/injection, schedule: Q07DX005 (ip), vehicle: saline) 68 % of control; (endpoint: median tumor weight (est.), dose: 1.56 mg/kg/injection, schedule: Q07DX005 (ip), vehicle: saline) 79 % of control; (endpoint: median tumor weight (est.), dose: 3.12 mg/kg/injection, schedule: Q07DX005 (ip), vehicle: saline) 82 % of control; (endpoint: median tumor weight (est.), dose: 6.25 mg/kg/injection, schedule: Q07DX005 (ip), vehicle: saline) 84 % of control; under setting [1], 70 % of control.

In the case of `CC(C)C(N)C(=O)Nc1nncs1` (configuration not stated), the T/C is 119 % of control under setting [2], 171 % of control under setting [3], 82 % of control under setting [4] and 81 % of control under setting [5].

For `COc1cc(C[C@H]2c3cc(OC)c(OC)cc3CCN2C)c(Oc2cc3c(cc2OC)-c2c(OC)c(OC)cc4c2[C@H](C3)N(C)CC4)cc1OC`, the T/C under setting [1] was 118 % of control; the T/C (endpoint: median tumor weight (est.), dose: 50.0 mg/kg/injection, schedule: Q07DX005 (ip), vehicle: saline) is 95 % of control; the T/C (endpoint: median tumor weight (est.), dose: 200.0 mg/kg/injection, schedule: Q07DX005 (ip), vehicle: saline) was 52 % of control; the T/C (endpoint: median tumor weight (est.), dose: 400.0 mg/kg/injection, schedule: Q07DX005 (ip), vehicle: saline) was 67 % of control.

With `NC(Cc1ccc(N(CCCl)Cc2ccccc2)cc1)C(=O)O` (configuration not stated), the T/C is, setting by setting: (endpoint: median tumor weight (est.), dose: 6.25 mg/kg/injection, schedule: Q07DX005 (ip), vehicle: distilled water + Tween-80) 84 % of control; (endpoint: median tumor weight (est.), dose: 12.5 mg/kg/injection, schedule: Q07DX005 (ip), vehicle: distilled water + Tween-80) 60 % of control; (endpoint: median tumor weight (est.), dose: 25.0 mg/kg/injection, schedule: Q07DX005 (ip), vehicle: distilled water + Tween-80) 79 % of control; (endpoint: median tumor weight (est.), dose: 50.0 mg/kg/injection, schedule: Q07DX005 (ip), vehicle: distilled water + Tween-80) 25 % of control.

`COc1ccc2nc3cc(Cl)ccc3c(NCCNCCNCCNc3c4ccc(Cl)cc4nc4ccc(OC)cc34)c2c1`: the T/C by setting is: under setting [6], 86 % of control and 108 % of control; under setting [7], 68 % of control; under setting [8], 88 % of control.

Consider `CS(=O)(=O)OCCN(CCOS(C)(=O)=O)c1ccc(C=O)cc1`, for which the T/C was 62 % of control under setting [9]; 62 % of control and 83 % of control under setting [6]; 35 % of control under setting [7]; 85 % of control under setting [10].

With `O=NN(CCCl)C(=O)NC1CCC(=O)NC1=O` (configuration not stated), the T/C (endpoint: median tumor weight (est.), dose: 4.0 mg/kg/injection, schedule: Q07DX005 (ip), vehicle: saline with Tween-80) is 49 % of control; the T/C (endpoint: median tumor weight (est.), dose: 8.0 mg/kg/injection, schedule: Q07DX005 (ip), vehicle: saline with Tween-80) is 24 % of control; the T/C (endpoint: median tumor weight (est.), dose: 13.0 mg/kg/injection, schedule: Q07DX005 (ip), vehicle: saline with Tween-80) is 12 % of control; the T/C (endpoint: median tumor weight (est.), dose: 20.0 mg/kg/injection, schedule: Q07DX005 (ip), vehicle: saline with Tween-80) is 6 % of control.

In the case of `Cc1cc(=O)n2c3c(c4c(cc13)c(CN(C)C)cc(=O)n4C)OC2`, for the setting “endpoint: median tumor weight change, dose: 62.0 mg/kg/injection, schedule: Q01DX001 (ip), vehicle: saline with Tween-80”, the T/C is 190 % of control.

Take `Cn1/c2cc/c1=C(\c1ccc(S(=O)(=O)O)cc1)c1ccc([n-]1)/C(c1ccc(S(=O)(=O)O)cc1)=c1/cc/c([nH]1)=C(\c1ccc(S(=O)(=O)O)cc1)c1ccc([n-]1)/C=2c1ccc(S(=O)(=O)O)cc1.O.O=S(=O)(O)C(F)(F)F.[Cu+2]`: the T/C (endpoint: median tumor weight change, dose: 62.5 mg/kg/injection, schedule: Q01DX001 (ip), vehicle: saline) was 124 % of control.

For the molecule `Cc1cc(NCCCCCCCNc2cc(C)nc3cc(N)ccc23)c2ccc(N)cc2n1`, the T/C (endpoint: median tumor weight (est.), dose: 3.12 mg/kg/injection, schedule: Q07DX005 (ip), vehicle: saline with Tween-80) is 89 % of control; the T/C under setting [9] was 111 % of control; the T/C under setting [6] is 79 % of control; the T/C under setting [7] is 26 % of control; the T/C (endpoint: median tumor weight change, dose: 31.25 mg/kg/injection, schedule: Q01DX001 (ip), vehicle: saline with Tween-80) is 28 % of control and 45 % of control; the T/C (endpoint: median tumor weight change, dose: 62.5 mg/kg/injection, schedule: Q01DX001 (ip), vehicle: saline with Tween-80) is 27 % of control.

Consider `O=C/C(Cl)=C(/Cl)C(=O)O`, for which the T/C is 190 % of control (endpoint: median tumor weight (est.), dose: 2.5 mg/kg/injection, schedule: Q07DX005 (ip), vehicle: saline with Tween-80); 121 % of control (endpoint: median tumor weight (est.), dose: 5.0 mg/kg/injection, schedule: Q07DX005 (ip), vehicle: saline with Tween-80); 245 % of control (endpoint: median tumor weight (est.), dose: 10.0 mg/kg/injection, schedule: Q07DX005 (ip), vehicle: saline with Tween-80).

Turning to `COc1ccc(Cl)[n+]([O-])n1`, the T/C under setting [11] was 79 % of control.

With `COc1c(CNC(=O)CCl)cc2[nH]c(C)cc2c1CNC(=O)CCl`, the T/C was 92 % of control (endpoint: median tumor weight (est.), dose: 6.25 mg/kg/injection, schedule: Q07DX005 (ip), vehicle: Klucel (hydroxypropylcellulose) (HPC)); 67 % of control (endpoint: median tumor weight (est.), dose: 12.5 mg/kg/injection, schedule: Q07DX005 (ip), vehicle: Klucel (hydroxypropylcellulose) (HPC)); 97 % of control (endpoint: median tumor weight (est.), dose: 50.0 mg/kg/injection, schedule: Q07DX005 (ip), vehicle: Klucel (hydroxypropylcellulose) (HPC)); 55 % of control (endpoint: median tumor weight (est.), dose: 100.0 mg/kg/injection, schedule: Q07DX005 (ip), vehicle: Klucel (hydroxypropylcellulose) (HPC)); 57 % of control (endpoint: median tumor weight (est.), dose: 200.0 mg/kg/injection, schedule: Q07DX005 (ip), vehicle: Klucel (hydroxypropylcellulose) (HPC)); 106 % of control under setting [11]. Besides, under “endpoint: median tumor weight change, dose: 250.0 mg/kg/injection, schedule: Q01DX001 (ip), vehicle: Klucel (hydroxypropylcellulose) (HPC)”, the T/C is 108 % of control.

For `CC(=O)OCC1OC(n2ncc(=O)[nH]c2=O)C(OC(C)=O)C1OC(C)=O` (configuration not stated), the T/C is, setting by setting: under setting [2], 165 % of control; under setting [3], 111 % of control; under setting [4], 162 % of control; under setting [5], 117 % of control.

`CC(O)CCC(=O)c1ccoc1` (configuration not stated): the T/C was 89 % of control (endpoint: median tumor weight change, dose: 3.32 mg/kg/injection, schedule: Q03HX003 (ip), vehicle: saline) and 101 % of control (endpoint: median tumor weight change, dose: 6.65 mg/kg/injection, schedule: Q03HX003 (ip), vehicle: saline).

With `C/C=C/c1cc2c(c(=O)o1)C(=O)[C@@H](O)[C@H](C)O2`, the T/C was 89 % of control under setting [6]; 87 % of control under setting [7]; 102 % of control under setting [8]; 77 % of control (endpoint: median tumor weight (est.), dose: 100.0 mg/kg/injection, schedule: Q07DX005 (ip), vehicle: saline with Tween-80); 82 % of control under setting [10].

Consider `COc1ccc2[nH]c3c(c2c1)CCNC3CC(C)CCC=C(C)C` (configuration not stated), for which the T/C (endpoint: median tumor weight change, dose: 15.62 mg/kg/injection, schedule: Q01DX001 (ip), vehicle: Klucel (hydroxypropylcellulose) (HPC)) is 118 % of control; the T/C (endpoint: median tumor weight change, dose: 25.0 mg/kg/injection, schedule: Q01DX001 (ip), vehicle: Klucel (hydroxypropylcellulose) (HPC)) is 100 % of control; the T/C (endpoint: median tumor weight change, dose: 31.25 mg/kg/injection, schedule: Q01DX001 (ip), vehicle: Klucel (hydroxypropylcellulose) (HPC)) is 197 % of control; the T/C (endpoint: median tumor weight change, dose: 50.0 mg/kg/injection, schedule: Q01DX001 (ip), vehicle: Klucel (hydroxypropylcellulose) (HPC)) is 64 % of control; the T/C (endpoint: median tumor weight change, dose: 100.0 mg/kg/injection, schedule: Q01DX001 (ip), vehicle: Klucel (hydroxypropylcellulose) (HPC)) is 51 % of control; the T/C under setting [11] was 159 % of control.

Regarding `CCCC(=O)O.CCCC(=O)O.CCCC(=O)O.CCCC(=O)O.[Rh].[Rh]`, the T/C (endpoint: median tumor weight change, dose: 0.62 mg/kg/injection, schedule: Q01DX001 (ip), vehicle: saline + alcohol) was 116 % of control; the T/C (endpoint: median tumor weight change, dose: 1.25 mg/kg/injection, schedule: Q01DX001 (ip), vehicle: saline + alcohol) is 81 % of control and 90 % of control; the T/C (endpoint: median tumor weight change, dose: 2.5 mg/kg/injection, schedule: Q01DX001 (ip), vehicle: saline + alcohol) is 56 % of control.
